Experimental data reported in patent publication US20250054573A1, “METHOD OF CHARACTERISING A DNA SAMPLE” (Cambridge Enterprise Limited, priority 2021, published 2025).

System: human cancer cell lines
Assay: Kendall's Tau correlation of CIN signature activities with drug response (AUC, PRISM drug repurposing screen) across cancer cell lines
Assay type: cell-based
Settings: for tau (Kendall's Tau), CIN signature activity vs drug response: drug AUC, PRISM screen
From the text: Calculating signature activities for cell lines. […] Combined cell line log R and BAF data was split into sample-specific log R and BAF files. […] In this pipeline, while the rescued SNPs allow for the identification of additional segments from their Log R, by construction their average BAF is never equal to 0 or 1 even in the presence of LOH. This biases purity estimates towards lower values and renders the copy-number fitting inaccurate.
Where nT is the total number of copies in the tumour, ρ is the purity and ψ is the average tissue ploidy. Akin to ASCAT, we picked the purity and ploidy combination that minimized the distance between nr and integer values. […] As fitting of absolute copy number to non-matched cell line data is inherently more challenging than other instances, all cell lines where ASCAT identified a plausible solution were visually inspected to determine fit suitability and excluded cell lines where absolute copy number profiles were incorrect or poorly fitted. […] For identifying the signature activities, we used the linear combination decomposition function from YAPSA (R package, v1.12.0) and the 17 signatures of CIN.
CRISPR, RNAi and drug response data integration.
Correlation of signatures with target gene KO, KD and drug inhibition. Kendall's Tau correlation was performed between CIN signature activities and gene essentiality scores from the genetic perturbation screens. Correlations were filtered for tau<−0.07 and q-value<0.05 after multiple testing corrections using the Benjamini-Hochberg method. […] These targets were then used to test correlation of the signature activity with matched drug inhibition of the target measured via AUC.

With `COc1cc2c(cc1O)CC[C@@H]1[C@@H]2CC[C@]2(C)[C@@H](O)CC[C@@H]12` [2-methoxyestradiol] the “tau (Kendall's Tau), CIN signature activity vs drug response” value (“tau (Kendall's Tau) … vs drug response” below) (CIN sig. CX5, Target HIF1A) was −0.1543.

For `Cc1ccc(NC(=O)c2cccc(C(C)(C)C#N)c2)cc1Nc1ccc2ncn(C)c(=O)c2c1` [AZ-628], the “tau (Kendall's Tau) … vs drug response” value (CIN sig. CX1, Target BRAF) was −0.09859, the “tau (Kendall's Tau) … vs drug response” value (CIN sig. CX14, Target BRAF) was −0.1048 and the “tau (Kendall's Tau) … vs drug response” value (CIN sig. CX14, Target RAF1) was −0.1048. For the same compound, the “tau (Kendall's Tau) … vs drug response” value (CIN sig. CX15, Target BRAF) was −0.1189.

With `Cn1cc(CNCC2CCN(c3ncc(C(=O)NO)cn3)CC2)c2ccccc21` [JNJ-26481585] the “tau (Kendall's Tau) … vs drug response” value (CIN sig. CX17, Target HDAC2) was −0.1371 and the “tau (Kendall's Tau) … vs drug response” value (CIN sig. CX17, Target HDAC4) was −0.1371.

In the case of `OC(Cc1ccncc1)C(Cl)(Cl)Cl` (stereo not shown) [PETCM], the “tau (Kendall's Tau) … vs drug response” value (CIN sig. CX9, Target CASP3) is reported as −0.1078.

`O=C1NC(=O)c2c1c1c3ccccc3[nH]c1c1[nH]c3ccccc3c21` [arcyriaflavin-a] was tested, and the “association of CX4 activity with drug response, in words” value (CIN sig. CX4, Target CCND1, 297 cancer cell lines) was “correlated with response to inhibition of CCND1”, the “tau (Kendall's Tau) … vs drug response” value (CIN sig. CX4, Target CCND1) was −0.1159 and the “tau (Kendall's Tau) … vs drug response” value (CIN sig. CX13, Target CDK4) was −0.07546.

`C/C1=C/C[C@@H](/C(C)=C/c2csc(C)n2)OC(=O)C[C@H](O)C(C)(C)C(=O)[C@H](C)[C@@H](O)[C@@H](C)CCC1` [epothilone-d] was tested, and the “tau (Kendall's Tau) … vs drug response” value (CIN sig. CX9, Target TUBB4B) was −0.07597.

With `O=C(c1cc(Cc2n[nH]c(=O)c3ccccc23)ccc1F)N1CCN(C(=O)C2CC2)CC1` [olaparib] the “association of CX5 activity with drug response, in words” value (CIN sig. CX5, Target PARP1, 297 cancer cell lines) was “predicted response to olaparib”.
